From US4366148A, “Use of somatostatin in the prevention and cure of vascular, membrane, or organ lesions” (Brigham and Women's Hospital, priority 1981, dated 1982)
Numbered stars: 1 amine (or outer) side, 2 acyl side, 3 side chain; on linkers, the order of the positions; unused ones are H or OH. Bridge positions count the residues as written; N and C are the ends. Square brackets hold non-standard residues; d marks the D form. Peptide text beside a SMILES is read from it. Trp(2-yl) = O=C([C@H](Cc1c([*:3])[nH]c2ccccc12)N[*:1])[*:2]; Leu(4R-OH,5-OH) = C[C@](O)(CO)C[C@H](N)C(=O)O; cisHyp = O=C(O)[C@@H]1C[C@H](O)CN1

How the values were obtained:
rats given phalloidin [1] = assay: Toxicity of phalloidin: hemorrhagic liver lesions and mortality after pretreatment; assay type: in vivo, Sprague-Dawley rat; conditions: for Hepatic lesions (Scale: 0-3) / Mortality (%): pretreatment before phalloidin 0.12 mg/100 g i.p.; for Hepatic lesions (Scale: 0-3): 0=normal, 3=enlargement and uniform hemorrhage of whole liver; for Mortality (%): observed up to 24 hr; for protective effect against phalloidin toxicity (lesions, mortality), in words: rats given phalloidin 0.12 mg/100 g i.p.
Experimental: In the present studies, Sprague-Dawley rats with an initial body weight of about 200 g had free access to Purina lab chow and tap water. Each control and experimental group consisted of 3-5 animals; every experiment was performed at least twice and the results were pooled.
Somatostatin (250 μg in 1 ml of protamine sulfate and ZnCl2 suspension) was injected s.c. 30 min before and 30 min after the administration of phalloidin (0.12 mg/100 g i.p.). In addition, 10 min before the toxin, another dose of 250 μg of somatostatin in 1 ml of distilled water was given i.p. Other groups of rats also received the sulfhydryl blocker N-ethylmaleimide (alone or in combination with somatostatin), 2 mg/100 g s.c. 20 min before and 40 min after phalloidin. A --SH free agalogue of somatostatin was used instead of the regular somatostatin in the same dose and at the same time in some experiments. This --SH free analogus was Di-S-tBu-Somatostatin, in which the hydrogens of the --SH groups (cystein) were replaced with t-butyl groups. […] The hemorrhagic liver lesions were evaluated on a scale of 0-3, where 0=normal, 1=multifocal (1-5 mm) hemorrhages, 2=large hemorrhagic areas entirely involving one lobe (usually the left and/or medium), 3=enlargement and uniform hemorrhage involving the whole liver.

[2] = test system: hepatic blood vessels of rats given phalloidin; assay: Hepatic uptake of Evans blue after phalloidin (vascular and hepatic membrane lesions); assay type: in vivo, Sprague-Dawley rat; conditions: for Evans blue (μg/g liver): Evans blue 1 mg/100 g i.v. 15 min before autopsy, somatostatin 250 μg s.c. 30 and 10 min before phalloidin; for hepatic uptake of Evans blue, in words: rats given phalloidin with or without somatostatin
Experimental: (§1) In the biochemical experiments, the animals were also injected with Evans blue 15 min before autopsy. At autopsy the portal vein was perfused in situ with 20 ml of saline to remove blood from hepatic vasculature. […] In the morphologic experiments, groups of rats were also injected with colloidal carbon (India ink, 0.1 mg/100 g i.v.) 15 min before autopsy. At that time pieces of liver were processed for subsequent light or electron microscopic studies. […] In rats given phalloidin, carbon labeling of sinusoidal macrophages was decreased in the centrilobular areas, while early deposits of carbon were seen along the sinusoidal walls in the periportal regions. […] As opposed to controls, carbon particles were also seen beyond endothelial cells and in Disse space soon after phalloidin injection. Subsequently, vacuolation of hepatocytes and increased amount of extravascular plasma-like material were noticed.
In all of the experiments, female or male Sprague-Dawley rats (150-200 g) were used. The animals were given free access to Purina lab chow and tap water. Each group consisted of at least 3-4 rats; every experiment was repeated at least twice and the results were pooled.
Control animals were injected with normal saline 30 min prior to sacrifice and autopsy. Animals treated with phalloidin alone were injected i.p. with 0.12 mg/100 g body weight 15 min, 30 min, or 60 min before sacrifice and autopsy. Animals treated with both phalloidin and somatostatin received phalloidin as above in addition to 250 μg s.c. somatostatin at 30 and 10 minutes before the phalloidin injection. The first somatostatin injection was dissolved in 1 ml of solution consisting of 0.5 ml of 0.1% protamine sulfate and 0.5 ml of ZnCl2, 250-260 μg/ml. The second somatostatin injection was given in normal saline. In addition, rats of all groups were given Evans blue, 1 mg/100 g i.v., 15 min before sacrifice and autopsy. Livers were prefused with 20 ml of saline in situ through the protal vein to remove intravascular dye prior to measuring dye uptake by the liver tissue.
A one gram sample from the left lobe was measured spectrophotometrically to determine the uptake of Evans blue dye in μg/g liver tissue.

rats given phalloidin [3] = assay: Model study: phalloidin intoxication of rats, mortality, liver weight, histology; assay type: in vivo, rat; conditions: for liver histology (light microscopy): phalloidin-intoxicated rats, with or without somatostatin
Experimental: This toxin kills rats within about 4 hours after intraperitoneal injection. Rats injected with phalloidin show a massive increase in liver size accompanied by hemorrhage. In a control group of rats given phalloidin but no somatostatin, 22 or 24 rats died within 2-4 hours. […] In the test group of 26 animals that were treated with both phalloidin and somatostatin, only 8 rats died. Furthermore, only a 30% average increase in liver weight was found in 10 animals treated with somatostatin and phalloidin and sacrificed four hours after intoxication.

adrenal and lung lesions = conditions: in vivo; cited from earlier work
[4] = test system: cysteamine-induced duodenal ulcer; conditions: pretreatment with exogenous somatostatin; cited from earlier work
[5] = test system: liver of rats given phalloidin; assay: Morphologic experiments: colloidal carbon (India ink) labeling of liver, light and electron microscopy; assay type: in vivo, rat
Experimental: In both cases, rats were given saline (control), phalloidin alone, or phalloidin and somatostatin. Somatostatin was given in subcutaneous injections in a solution of protamine sulfate and zinc chloride in order to prolong its effectiveness, or in normal saline.
as §1

[6] = test system: experimentally-induced pancreatitis; conditions: in vivo; cited from earlier work
[7] = 15 min after phalloidin 0.12 mg/100 g i.p.
[8] = 30 min after phalloidin 0.12 mg/100 g i.p.
[9] = 60 min after phalloidin 0.12 mg/100 g i.p.

## CCN1C(=O)C=CC1=O [N--Ethylmaleimide (N--EM), N-ethylmaleimide]
Rats given phalloidin [1]
  Hepatic lesions (Scale: 0-3): 2.3 ± 0.2
  Mortality (%): 90%
Rats given phalloidin [1]; listed as N-ethylmaleimide
  protective effect against phalloidin toxicity (lesions, mortality), in words: counteracted the protective action of regular somatostatin
Rats given phalloidin [1]; listed as N-ethylmaleimide (N-EM)
  protective effect against phalloidin toxicity (lesions, mortality), in words: counteracted the beneficial effect of somatostatin

## C[C@@H]1NC(=O)[C@H](C[C@@](C)(O)CO)NC(=O)[C@@H]2Cc3c([nH]c4ccccc34)SC[C@H](NC(=O)[C@@H]([C@H](C)O)NC1=O)C(=O)N1C[C@@H](O)C[C@H]1C(=O)N[C@@H](C)C(=O)N2 [Phalloidin, phalloidin] (cyclo(A[dT]C[cisHyp]A[Trp(2-yl)][Leu(4R-OH,5-OH)]); thioether 3-6)
[2]; [7]
  Evans blue (μg/g liver): 11.21 ± 2.40 μg/g liver
[2]; [8]
  Evans blue (μg/g liver): 28.50 ± 4.67 μg/g liver
[2]; [9]
  Evans blue (μg/g liver): 51.08 ± 13.56 μg/g liver
[2]
  hepatic uptake of Evans blue, in words: time dependent increase
Rats given phalloidin [3]; after intraperitoneal injection
  time within which the toxin kills rats: ≤ 4 h
Rats given phalloidin [3]; autopsy of rats that died after phalloidin alone
  average increase in liver weight, phalloidin alone: 70%
Rats given phalloidin [3]; control group of 24 rats given phalloidin alone
  rats died, phalloidin but no somatostatin: 22 rats
Rats given phalloidin [3]; control group, phalloidin but no somatostatin
  time within which control rats died: 2 to 4 h
Rats given phalloidin [3]
  liver histology (light microscopy): vacuolization of hepatocytes, congestion, and hemorrhagic necrosis

## Di-S-tBu-Somatostatin [di-S--tBu-Somatostatin]
Rats given phalloidin [1]
  Hepatic lesions (Scale: 0-3): 2.7 ± 0.2
  Mortality (%): 92%
Rats given phalloidin [1]; listed as somatostatin analogue without thiol groups
  protective effect against phalloidin toxicity (lesions, mortality), in words: inactive
Rats given phalloidin [1]; listed as sulfhydryl-free derivative of somatostatin
  protective effect against phalloidin toxicity (lesions, mortality), in words: without effect

## Somatostatin
Adrenal and lung lesions
  effect on adrenal and lung lesions: beneficial effect
[4]
  cysteamine-induced duodenal ulcer: prevents
  gastric acid output: minimal inhibition
[5]; colloidal carbon 0.1 mg/100 g i.v. 15 min before autopsy, after phalloidin
  distribution of India ink / carbon labeling of sinusoidal walls, light microscopy: virtually abolished the carbon labeling of sinusoidal walls
[5]; livers of rats given somatostatin and phalloidin
  electron microscopic changes (endothelial breakdown, extravascular carbon, vacuolation of hepatocytes): markedly diminished or absent
[2]; [7]
  Evans blue (μg/g liver): 7.17 ± 0.64 μg/g liver
[2]; [8]
  Evans blue (μg/g liver): 16.93 ± 4.76 μg/g liver
[2]; [9]
  Evans blue (μg/g liver): 15.50 ± 4.65 μg/g liver
[2]
  hepatic uptake of Evans blue, in words: virtually abolished this enhanced uptake
[2]; listed as somatostatin
  hepatic uptake of Evans blue, in words: prevented or significantly decreased
[6]
  effect on experimentally-induced pancreatitis: beneficial effect
Rats given phalloidin [1]
  Hepatic lesions (Scale: 0-3): 0.7 ± 0.2
  Mortality (%): 20%
  protective effect against phalloidin toxicity (lesions, mortality), in words: significantly diminished
Rats given phalloidin [3]; 10 animals sacrificed four hours after intoxication
  average increase in liver weight, somatostatin and phalloidin: 30%
Rats given phalloidin [3]
  liver histology (light microscopy): only mild vacuolization of hepatocytes and slight congestion
Rats given phalloidin [3]; test group of 26 animals treated with both phalloidin and somatostatin
  rats died, phalloidin and somatostatin: 8 rats
